Source: PMC7253723, “Chain-End Modifications and Sequence Arrangements of Antimicrobial Peptoids for Mediating Activity and Nano-Assembly” (Frontiers in Chemistry, 2020)
Values joined by “and” are separate entries in the source; they are usually repeats but may differ in a detail not shown here. Equal values may be shown once. Read-outs that look alike come from different tables or passages of the source. Square brackets hold non-standard residues; d marks the D form. Peptide text beside a SMILES is read from it. * marks the point of attachment. N(1-naphthylmethyl)Gly = O=C(O)CNCc1cccc2ccccc12; N(4-MeBn)Gly = Cc1ccc(CNCC(=O)O)cc1; Palmitoyl = CCCCCCCCCCCCCCCC(=O)*; Nspe = C[C@H](NCC(=O)O)c1ccccc1; Lauroyl = CCCCCCCCCCCC(=O)*; Nonanoyl = CCCCCCCCC(=O)*; AEEA = NCCOCCOCC(=O)O; NBuGly = CCCCNCC(=O)O; Nlys = NCCCCNCC(=O)O

Experiments:
[1] = Critical aggregation concentration (CAC) Nile red fluorescence assay; type: physicochemical; details: room temperature
Procedure: Nile red (NR) fluorescence was used to measure critical aggregation concentration (CAC) for the synthesized lipopeptoids. Lipopeptoids were dissolved at 2.5 × 10^−2 to 1 wt.% in a dilute solution of Nile red (0.25 μg/100 mL, i.e. ~10 nM concentration) prepared in water. NR was excited at 552 nm and emission was recorded at room temperature in the range 550–750 nm using a 10.0 × 5.0 mm^2 quartz cell (Jasco spectrofluorimeter FP-6500). The intensity of the peak centered around 610 nm is shown in the data presented in Section results and discussion.
We first examined with a CAC assay whether coupling a hydrophobic tail to AMPMs and inserting the kk and EG2 components is a viable design for generating self-assembling lipopeptoids. The CAC measures the concentration above which hydrophobic pockets (e.g., lipophilic cores of micelles) are formed, and lower CACs indicate higher propensities of self-assembly. In our experiments, the CAC is indicated by an inflection in the increase in emission intensity of a lipophilic fluorophore tracer (Nile Red) that emits more strongly when partitioned into hydrophobic lower dielectric environments (see Figure S6 for an example analysis).

[2] = Analytical RP-HPLC elution (ACN %) as measure of hydrophobicity; type: physicochemical; details: chromatographic, C18 column (250 × 4.6 mm Nucleosil), 30 min gradient 5–95% ACN in water with 0.1% TFA, 1 mL/min, used as measure of hydrophobicity
Procedure: Peptoids were synthesized on resin manually or with an automated synthesizer (Prelude X, Gyros Protein Technologies) using a solid phase “submonomer” approach (Zuckermann et al., [1992]; Lau, [2014]; Lau et al., [2017]). Briefly, the Fmoc protected rink amide resin was deprotected with 20% piperidine for 20 min, applied twice. Each residue was added by treatment to a mixture of bromoacetic acid (20 times excess) and diisopropyl-carbodiimide (18.5 times excess) for 15 min, followed by a halo-substitution reaction with appropriate primary amine submonomers. For the attachment of a di ethylene glycol linker, Fmoc-amino-3,6 dioxaoctanoic acid (1.8 mmol), and equivalent moles of HBTU ((2-(1H-benzotriazol-1-yl)-1,1,3,3-tetramethyluronium hexafluorophosphate) were reacted with the terminal amino group in the presence of N,N-diisopropylethylamine (DIPEA, 2.7 mmol). This reaction was carried out for 2 h at 37°C and repeated a second time for 4 h, to ensure coupling. Like resin Fmoc deprotection, EG2 N-terminal Fmoc deprotection was achieved using 20% piperidine for 20 min, applied twice. Different chain lengths of saturated fatty acids, i.e., pelargonic acid (C8), lauric acid (C11), and palmitic acid (C15) were subsequently coupled using the HBTU amide coupling as reported previously (Lau et al., [2017]). After solid phase synthesis, the resin was cleaved and side chains were deprotected for 30 min using a standard TFA:TIPS:H2O cocktail (95:2.5:2.5 v/v/v). Excess TFA was removed using a rotary evaporator and the peptoid was precipitated from the oily product using diethyl ether. The collected material was dissolved in small amounts of 1:1 acetonitrile:water (ACN:H2O) to ease sample transfer, and further dried in a lyophilizer. Dried crude products were weighed and dissolved in ACN-H2O mixtures for preparative RP-HPLC (Dionex Ultimate 3000) with a C18 column (250 × 10 mm Phenomenex Jupiter). Fractions containing the pure product were identified by ESI-LC-MS (Agilent 1200 with a Poroshell C18 column coupled to an Agilent 6130 mass spectrometer) and by analytical RP-HPLC (Dionex P680) using a C18 column (250 × 4.6 mm “Nucleosil”) with a 30 min gradient of 5–95% acetonitrile (ACN) in water containing 0.1% TFA at 1 mL/min. The purified fractions of peptoids and lipopeptoids were later stored as aliquots at −20°C until further analysis.

[3] = system: Escherichia coli (ATCC 25922); type: cell-based
Procedure: (§1) Technical triplicates (n = 3) or more of samples at each concentration were analyzed.

[4] = system: Pseudomonas aeruginosa (PA01); type: cell-based
Procedure: as §1

[5] = system: Staphylococcus aureus (NCTC 4135); type: cell-based
Procedure: as §1

[6] = Dynamic light scattering (DLS), hydrodynamic radius of nano-assemblies; type: physicochemical; details: 0.4 wt.% in deionized water, 0.22 μm filtered, 25°C, detection angle 90°
Procedure: DLS measurements were carried out at room temperature (25°C) using an ALV/LSE-5004 instrument equipped with He-Ne laser (λ = 632.8 nm) at a detection angle of θ = 90° (Lau et al., [2017]). Samples were prepared at a concentration of 0.4 wt.% in deionized water (DI) water and further filtered using 0.22 μm pore size surfactant-free cellulose acetate (SFCA) syringe filters (Sigma Aldrich, UK) to avoid particulate contamination.

[7] = Small angle X-ray scattering (SAXS), size of nano-assemblies; type: physicochemical; details: 1 wt.% peptoid solution, fitted
Procedure: SAXS experiments were performed on the bioSAXS beamline B21 at Diamond Light Source, U.K., using a previously established protocol (Castelletto et al., [2019]). Briefly, solutions containing 1 wt.% peptoid were loaded into a set of PCR tubes fitted in the 96-well plate of the BioSAXS robot. From there, the robot loaded the solutions into a quartz capillary perpendicularly placed in the path of the incident X-ray beam. SAXS data, collected using a Dectris PILATUS 2 M detector at a fixed camera length of 3.9 m, is presented as scattering intensity vs. q = 4π sinθ /λ (2θ: scattering angle; wavelength: λ = 1 Å). See Supplementary Information for description of SAXS data fitting.

[8] = Cryo-TEM, size of nano-assemblies; type: physicochemical; details: vitrified sample
Procedure: Sizes of selected lipopeptoid nano-assemblies were verified using a field emission cryo-electron microscope (JEOL JEM3200FSC), operating at 200 kV and at −187°C, configured in bright field mode and zero loss energy filtering (omega type) with a slit width of 20 eV. Sizes of selected lipopeptoids nano-assemblies were measured from photographs recorded using a Gatan Ultrascan 4000 CCD camera. Vitrified specimens were prepared on Quantifoil 3.5/1 holey carbon copper grids (hole size of 3.5 μm). The grids were first plasma cleaned using a Gatan Solarus 9500 plasma cleaner and then transferred into the environmental chamber of an automated FEI Vitrobot device at room temperature and 100% humidity. Thereafter, 3 μL of the sample solution was applied on the grid, which was blotted twice for 5 s and then vitrified in a 1:1 mixture of liquid ethane and propane at a temperature of −180°C. The grids with vitrified sample solution were maintained at liquid nitrogen temperature and then cryo-transferred to the microscope.

[9] = Nile red fluorescence (~10 nM NR in water), lipopeptoids 2.5 × 10^-2 to 1 wt.%, excitation 552 nm, peak around 610 nm, inflection in emission intensity
[10] = MH broth microdilution (CLSI M07-A10), ~5 × 10^5 CFU/mL, overnight 37°C, OD 600 nm, MIC = concentration with OD halfway between minimum and maximum, sigmoidal fit ± SD, n = 3 or more, maximum tested 100 μM
[11] = PA01, MH broth microdilution (CLSI M07-A10), ~5 × 10^5 CFU/mL, overnight 37°C, OD 600 nm, MIC = concentration with OD halfway between minimum and maximum, sigmoidal fit ± SD, n = 3 or more, maximum tested 100 μM

SMILES | CAC [1, 9] | elution ACN % (RP-HPLC retention) [2] [ACN %] | Antimicrobial activity (MIC) E. coli [3, 10] [µM] | Antimicrobial activity (MIC) P. aeruginosa [4, 11] [µM] | Antimicrobial activity (MIC) S. aureus [5, 10] [µM] | also measured
CCCCCCCCCCCC(=O)NCCOCCOCC(=O)N(CCCCN)CC(=O)N(CC(=O)N(CC(=O)N(CCCCN)CC(=O)N(CC(=O)N(CC(=O)N(CCCCN)CC(=O)N(CCCCN)CC(N)=O)[C@@H](C)c1ccccc1)[C@@H](C)c1ccccc1)[C@@H](C)c1ccccc1)[C@@H](C)c1ccccc1 [C11-EG2-(kss)2-kk] ({Lauroyl-AEEA}-[Nlys][Nspe][Nspe][Nlys][Nspe][Nspe][Nlys][Nlys]-NH2) | 198 µM and 200 ± 17 µM | 52 |  |  |  | 
CCCCCCCCCCCCCCCC(=O)N(CCCCN)CC(=O)N(CC(=O)N(CC(=O)N(CCCCN)CC(=O)N(CC(=O)N(CC(=O)N(CCCCN)CC(=O)N(CC(=O)N(CC(=O)N(CCCCN)CC(=O)N(CC(=O)N(CC(=O)N(CCCCN)CC(=O)N(CCCCN)CC(N)=O)[C@@H](C)c1ccccc1)[C@@H](C)c1ccccc1)[C@@H](C)c1ccccc1)[C@@H](C)c1ccccc1)[C@@H](C)c1ccccc1)[C@@H](C)c1ccccc1)[C@@H](C)c1ccccc1)[C@@H](C)c1ccccc1 [C15-(kss)4-kk] (Palmitoyl-[Nlys][Nspe][Nspe][Nlys][Nspe][Nspe][Nlys][Nspe][Nspe][Nlys][Nspe][Nspe][Nlys][Nlys]-NH2) | 304 µM and 300 ± 25 µM | 66 |  |  |  | 
CCCCCCCCCCCCCCCC(=O)NCCOCCOCC(=O)N(CCCCN)CC(=O)N(CC(=O)N(CC(=O)N(CCCCN)CC(=O)N(CC(=O)N(CC(=O)N(CCCCN)CC(=O)N(CC(=O)N(CC(=O)N(CCCCN)CC(=O)N(CC(=O)N(CC(=O)N(CCCCN)CC(=O)N(CCCCN)CC(N)=O)[C@@H](C)c1ccccc1)[C@@H](C)c1ccccc1)[C@@H](C)c1ccccc1)[C@@H](C)c1ccccc1)[C@@H](C)c1ccccc1)[C@@H](C)c1ccccc1)[C@@H](C)c1ccccc1)[C@@H](C)c1ccccc1 [C15-EG2-(kss)4-kk] ({Palmitoyl-AEEA}-[Nlys][Nspe][Nspe][Nlys][Nspe][Nspe][Nlys][Nspe][Nspe][Nlys][Nspe][Nspe][Nlys][Nlys]-NH2) |  |  |  |  |  | Antimicrobial activity (MIC) E. coli [3]: 44 ± 5 µM; Antimicrobial activity (MIC) P. aeruginosa [4]: >100 µM; Antimicrobial activity (MIC) S. aureus [5]: 36 ± 5 µM; Hydrodynamic radius RH (DLS): 45 nm
CCCCCCCCCCCCCCCC(=O)NCCOCCOCC(=O)N(CCCCN)CC(=O)N(CC(=O)N(CC(=O)N(CCCCN)CC(=O)N(CC(=O)N(CC(=O)N(CCCCN)CC(=O)N(CC(=O)N(CC(=O)N(CCCCN)CC(=O)N(CC(=O)N(CC(N)=O)[C@@H](C)c1ccccc1)[C@@H](C)c1ccccc1)[C@@H](C)c1ccccc1)[C@@H](C)c1ccccc1)[C@@H](C)c1ccccc1)[C@@H](C)c1ccccc1)[C@@H](C)c1ccccc1)[C@@H](C)c1ccccc1 [C15-EG2-(kss)4] ({Palmitoyl-AEEA}-[Nlys][Nspe][Nspe][Nlys][Nspe][Nspe][Nlys][Nspe][Nspe][Nlys][Nspe][Nspe]-NH2) | 38 µM and 38 ± 3 µM | 82 |  |  |  | CAC ([1]; Nile red fluorescence in water, CAC expressed in wt.%): 0.0075 wt.%; hydrodynamic radius (RH) [6]: ca. 50 nm; radius of nano-assemblies (SAXS) [7]: 24 ± 5 nm; diameter of smallest non-compact aggregates (TEM) [8]: ca. 5 nm
CCCCCCCCCCCC(=O)NCCOCCOCC(=O)N(CCCCN)CC(=O)N(CC(=O)N(CC(=O)N(CCCCN)CC(=O)N(CC(=O)N(CC(=O)N(CCCCN)CC(=O)N(CC(=O)N(CC(=O)N(CCCCN)CC(=O)N(CCCCN)CC(N)=O)[C@@H](C)c1ccccc1)[C@@H](C)c1ccccc1)[C@@H](C)c1ccccc1)[C@@H](C)c1ccccc1)[C@@H](C)c1ccccc1)[C@@H](C)c1ccccc1 [C11-EG2-(kss)3-kk] ({Lauroyl-AEEA}-[Nlys][Nspe][Nspe][Nlys][Nspe][Nspe][Nlys][Nspe][Nspe][Nlys][Nlys]-NH2) | 310 ± 38 µM | 54 | 3 ± 0.2 | 15 ± 0.4 | 1 ± 0.1 | CAC ([1]; Nile red fluorescence in water, CAC expressed in mg/mL): 0.52 mg/mL
CCCCCCCCC(=O)NCCOCCOCC(=O)N(CC(=O)N(CCCCN)CC(=O)N(CC(=O)N(CCCCN)CC(=O)N(CC(=O)N(CCCCN)CC(=O)N(CCCC)CC(=O)N(CCCCN)CC(N)=O)Cc1cccc2ccccc12)Cc1ccc(C)cc1)Cc1cccc2ccccc12 [C8-EG2-kykbk] ({Nonanoyl-AEEA}-[N(1-naphthylmethyl)Gly][Nlys][N(4-MeBn)Gly][Nlys][N(1-naphthylmethyl)Gly][Nlys][NBuGly][Nlys]-NH2) | 1900 ± 200 µM |  | 11 ± 4 | 15 ± 3 | 2 ± 0.2 | 
